The text below walks through data of patent US20100184810A1, “METHODS AND COMPOSITIONS RELATED TO RIBOSWITCHES THAT CONTROL ALTERNATIVE SPLICING” (Yale University, priority 2007, published 2010).

In one test the target is NMT1 riboswitch aptamer. The test can be described thus: In-line probing of NMT1 RNA constructs (TPP binding). Further details: species or system N. crassa. The protocol:
In-line probing of RNA constructs. 5′ 32P-labeled RNAs were incubated at 23° C. for 40 hours in 50 mM Tris-HCl (pH 8.3 at 25° C.), 20 mM MgCl2 and 100 mM KCl in the presence or absence of TPP as defined. Cleavage products were separated by denaturing 10% PAGE, visualized by PhosphorImager (GE Healthcare), and quantified using ImageQuant software. KD values were determined by plotting the normalized fraction of RNA cleaved versus the logarithm of ligand concentration used. […] The results for in-line probing of 197 NMT1 and 115 NMT1 are depicted in FIG. 8 and FIG. 9, the results for 261 NMT1 are depicted in FIG. 10 and the results for 273 NMT1 are depicted in FIG. 11. Alternative base pairing similar to that being examined in the 273 NMT1 construct is observed in other fungal TPP riboswitches located in NMT1 mRNAs (FIG. 12).

For another test, the system named is NMT1 precursor mRNA. Here is the method:
(§1) RNA Analyses. RT-PCR analyses were conducted using RNA from untransformed N. crassa inoculated into 100 ml of Vogel's minimal medium supplemented with 0.5 mg ml-1 L-histidine. Cultures were grown at 30° C. with shaking at 150 rpm for 24 h either in the absence or presence of supplemented 30 μM thiamine. The cDNA was used as a template for PCR amplification of the 5′ regions of the three genes using primers and methods as described in Supplementary Information. All splicing products were confirmed by cloning and sequencing.
(§2) Reverse transcriptase-polymerase chain reaction (RT-PCR) analyses. Total RNA was isolated from mycelia using TRIzol® LS reagent (Invitrogen) according to the manufacturer's directions. 5 μg of total RNA was treated with RNase free DNase I (Promega) for 30 min at 37° C. cDNA was generated by reverse transcription with a polyT primer for 1 hr at 42° C. using SuperScript™ II Reverse Transcriptase (Invitrogen) according to the manufacturer's directions. To exclude the possibility of amplification products originating from contamination with genomic DNA, control reactions using RNA preparations before RT were performed and, for NMT1, a reverse primer spanning an exon-exon border in the coding region was used.
as §2, with “used. […] For sequence identification all amplification products were cloned and confirmed by sequencing several independent clones.” for “used.”
(§3) A specific primer combination was used for every gene with one primer binding to the annotated 5′ end of the transcript and a second primer binding immediately downstream of the riboswitch-containing intron. For the NMT1 gene, the primers used for PCR were DNA37 and DNA38 (FIG. 14), corresponding to the annotated 5′ end of the NMT1 mRNA and a region approximately 50 nucleotides downstream of the TPP riboswitch-containing intron, respectively. For the THI4 (CyPBP37) gene, the primers used were DNA39 and DNA40, corresponding to the 5′ end of the mRNA and a region approximately 125 nucleotides downstream of the TPP riboswitch-containing intron, respectively.

The next test concerns THI4 precursor mRNA. The conditions noted are these: 30 μM thiamine in growth medium, 24 h. Here is the method: as §1, §2
as §2, with “used. […] For sequence identification all amplification products were cloned and confirmed by sequencing several independent clones.” for “used.”
as §3

Test [1] has as its system thiA mRNA carrying a TPP aptamer. The settings on record: thiamine supplementation of growth medium; cited from earlier work.
The subject of test [2] is FREQUENCY (FRQ) transcripts. The conditions noted are these: 30 μM thiamine in minimal medium. The protocol: as §2
Reverse transcriptase-polymerase chain reaction (RT-PCR) analyses. Total RNA was isolated from mycelia using TRIzol® LS reagent (Invitrogen) according to the manufacturer's directions. 5 μg of total RNA was treated with RNase free DNase I (Promega) for 30 min at 37° C. cDNA was generated by reverse transcription with a polyT primer for 1 hr at 42° C. using SuperScript™ II Reverse Transcriptase (Invitrogen) according to the manufacturer's directions. […]

Test [3] relates to TPP riboswitch in the N. crassa NCU01977.1 mRNA. The conditions noted are these: 30 μM thiamine, 24 h.
Method: LUC activity was normalized to the value measured at t=0 h.
Luciferase reporter gene assays. Mycelia from N. crassa transformed with LUC reporter constructs were isolated by filtration and approximately 100 mg of tissue was ground to a fine powder. After addition of 100 gl 1× Passive Lysis Buffer (Promega), the samples were vigorously mixed and incubated on ice for 30 min followed by centrifugation for 15 minutes at 13,000 g. Luciferase activity was determined for the resulting supernatant using the Luciferase Assay System (Promega) and a plate-reading luminometer (Wallac). Luciferase activity was normalized over total protein concentration of the extract as determined by Bradford Protein Assay (BioRad) and finally expressed relative to a reference construct.
(§4) Luciferase reporter gene assays. Mycelia from N. crassa transformed with LUC reporter constructs were isolated by filtration and approximately 100 mg of tissue was ground to a fine powder. […] Luciferase activity was determined for the resulting supernatant using the Luciferase Assay System (Promega) and a plate-reading luminometer (Wallac). Luciferase activity was normalized over total protein concentration of the extract as determined by Bradford Protein Assay (BioRad) and finally expressed relative to a reference construct.
Setting [4] is: 30 μM thiamine added at t=0 to culture grown in thiamine-free medium.

Like-named read-outs stand apart in the source and are kept apart here.

Method for NMT1 TPP riboswitch: Reporter Gene Assays. Transformation of N. crassa was conducted using electroporation of freshly suspended macroconidia and insertion of the target gene was verified by PCR with insert specific primers from genomic DNA. Transcription of luciferase reporter constructs was constitutively driven by the N. crassa beta-tubulin (BTUB) promoter inserted upstream of the NMT1 5′ UTR. […] Samples were isolated and assayed for luciferase activity as described below.
as §4
Luciferase reporter gene assays. […] Luciferase activity was determined for the resulting supernatant using the Luciferase Assay System (Promega) and a plate-reading luminometer (Wallac). Luciferase activity was normalized over total protein concentration of the extract as determined by Bradford Protein Assay (BioRad) and finally expressed relative to a reference construct.

As for `Cc1ncc(C[n+]2csc(CCO[P@](=O)(O)OP(=O)(O)O)c2C)c(N)n1` [TPP, thiamine pyrophosphate], the Kd at NMT1 riboswitch aptamer (both constructs (197 NMT1 and 115 NMT1), in-line probing, 23° C., 40 hours, 20 mM MgCl2, read-out: apparent dissociation constant (KD)) was ~0.3 nM. Also, the “structural modulation of nucleotides at the branch site” value in the test with NMT1 riboswitch aptamer (in-line probing of 261 NMT1 RNA, 10 μM TPP) was “more structured”. Further, the “structural modulation at the second 5′ splice site” value in the test with NMT1 riboswitch aptamer (in-line probing of 273 NMT1 RNA, 10 μM TPP) is recorded as “more flexible structure”.
As for `Cc1ncc(C[n+]2csc(CCO)c2C)c(N)n1` [thiamine], in the test on NMT1 precursor mRNA (setting [4]), the “NMT1 transcript types within four hours after thiamine supplementation” value was “I-3 is almost completely replaced by I-2 and I-1”; the “NMT1 transcript types within the first hour after thiamine supplementation” value was “the splicing product I-2 and the unspliced NMT1 precursor RNA I-1 appear”. Also, the “effect on splicing of NMT1 precursor mRNA” value with NMT1 precursor mRNA (30 μM thiamine in growth medium, 24 h) is listed as “causes alternative splicing”. Besides, the “effect on splicing of THI4 precursor mRNA” value in the test with THI4 precursor mRNA is given as “causes alternative splicing”. For the same compound, the “LUC expression, constructs I-2R and I-3R (TPP riboswitch absent)” value in the test with NMT1 TPP riboswitch (30 μM thiamine in the medium) is recorded as “unchanged”. Moreover, in the test with NMT1 TPP riboswitch (grown overnight in medium supplemented with 30 μM thiamine), the “LUC reporter expression, wild-type (WT) NMT1 construct” value was “Substantial repression”. The thiA gene expression result in test [1] is listed as “reduced gene expression”. In addition, in test [2], the “effect on splicing of an RNA that does not carry the TPP riboswitch (FRQ)” value is given as “do not change in number relative to each other”. Further, the “effect on splicing of an RNA that does not carry the TPP riboswitch (FRQ)” value in test [2] (listed as Thiamine) is given as “does not affect splicing”. In test [3], the “LUC expression, NCU01977.1 reporter fusion construct” value is “an increase in LUC expression”.
